Assay results reported in patent publication US12600728B2, “Interleukin-17 inhibitors” (priority 2020, dated 2026).
Read-outs that look alike come from different tables or passages of the source.

Tests used:
[1] = biological target: biotinylated human IL-17A / AF647-labeled human IL-17RA (Homo sapiens, UniProt Q16552); assay: Human IL-17A×IL-17RA TR-FRET assay; type: binding; conditions: biotinylated human IL-17A 5 nM, AF647-labeled human IL-17RA 30 nM
How it was run: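 Compounds tested in duplicate at each concentration; neutral controls contain all components with DMSO in place of compound.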

[2] = biological target: recombinant human IL-17AA (Homo sapiens, UniProt Q16552); assay: IL-6 release from NHDF cells, IL-17AA plus TNF-α stimulation; type: cell-based; conditions: IL-17AA 30 pM plus TNF-α 6 pM, 24 hours, IL-6 by ELISA
Protocol: IL-6 Release from NHDF Cells (Normal Human Dermal Fibroblasts)
NHDF cells isolated from normal adult mesoderm, connective tissues were cultured in fibroblast growth medium containing 2% supplement. […] The cells were allowed to adhere overnight before they were incubated with the compound/cytokine cocktail.
Diluted compounds were pre-incubated with recombinant human IL-17AA or IL-17AF plus human TNF-α for 30 minutes at room temperature on a shaker. […] The cells were incubated with the compound/cytokines cocktail for 24 hours at 37° C. (5% CO2). […] The final DMSO or plasma concentrations were 0.1% or 20%, respectively. All compound incubations were done in duplicate. The supernatants were collected to quantify IL-6 by ELISA according to the manufacturers instructions. The optical density was measured at 450 nm by an EnVision Multilabel Plate Reader (Perkin Elmer). The IL-6 levels produced after TNF-α stimulation were subtracted from the IL-6 produced after IL-17/TNF-α co-stimulation. These IL-17-specific IL-6 concentrations were used for […] value calculation.

[3] = TR-FRET, read-out: IL17AA FRET/ IL17Rawt IC50
[4] = NHDF cells, read-out: IL17AA + TNF IC50 IL-6

Sequence of biotinylated human IL-17A / AF647-labeled human IL-17RA (Q16552 24-155): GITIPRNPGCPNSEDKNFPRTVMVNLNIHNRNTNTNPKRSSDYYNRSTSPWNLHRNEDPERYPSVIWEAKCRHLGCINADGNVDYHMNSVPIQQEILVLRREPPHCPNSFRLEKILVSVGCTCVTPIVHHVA
Sequence of recombinant human IL-17AA (Q16552 24-155): as above

Row | IC50 [1, 3] [nM] | IC50 [2, 4] [nM] | Structure (SMILES) | IC50 ([1]; IL17AA FRET/ IL17Rawt IC50, TR-FRET) [nM] | IC50 ([2]; IL17AA + TNF IC50 IL-6, NHDF cells) [nM]
1 | 178 | 69 | COCc1nocc1C(=O)NC(C(=O)Nc1ccc(-c2c(C)cc[n+]([O-])c2C)cc1)C1CCC(C(F)(F)F)CC1 [Example 25, 3-(4-((S)-2-(3-(methoxymethyl)isoxazole-4-carboxamido)-2-((1r,4S)-4-(trifluoromethyl)cyclohexyl)acetamido)phenyl)-2,4-dimethylpyridine 1-oxide] |  | 
2 | 46 | 12 | CCc1nocc1C(=O)N[C@H](C(=O)Nc1ccc(-c2c(C)cc[n+]([O-])c2C)cc1)[C@H]1CCCC(F)(F)C1 [Example 30, 3-(4-((S)-2-((S)-3,3-difluorocyclohexyl)-2-(3-ethylisoxazole-4-carboxamido)acetamido)phenyl)-2,4-dimethylpyridine 1-oxide] |  | 
3 | 114 | 15 | CCc1nocc1C(=O)N[C@H](C(=O)Nc1ccc(-c2c(C)cc[n+]([O-])c2C)cc1)C1CCC(F)(F)CC1 [Example 31, (S)-3-(4-(2-(4,4-difluorocyclohexyl)-2-(3-ethylisoxazole-4-carboxamido)acetamido)phenyl)-2,4-dimethylpyridine 1-oxide] |  | 
4 | 286 | 50 | Cc1cc[n+]([O-])c(C)c1-c1ccc(NC(=O)[C@@H](NC(=O)c2ccnn2C)C2CCC(F)(F)CC2)cc1 [Example 32, (S)-3-(4-(2-(4,4-difluorocyclohexyl)-2-(1-methyl-1H-pyrazole-5-carboxamido)acetamido)phenyl)-2,4-dimethylpyridine 1-oxide] |  | 
5 | 1150 | 88 | COCc1nocc1C(=O)N[C@H](C(=O)Nc1ccc(-c2c(C)cc[n+]([O-])c2C)cc1)C1CCC(F)(F)CC1 [Example 33, (S)-3-(4-(2-(4,4-difluorocyclohexyl)-2-(3-(methoxymethyl)isoxazole-4-carboxamido)acetamido)phenyl)-2,4-dimethylpyridine 1-oxide] |  | 
6 | 81 | 100 | CCc1nocc1C(=O)N[C@H](C(=O)Nc1ccc(-c2c(C)cc[n+]([O-])c2C)cc1)C1CCCC1 [Example 34, (S)-3-(4-(2-cyclopentyl-2-(3-ethylisoxazole-4-carboxamido)acetamido)phenyl)-2,4-dimethylpyridine 1-oxide] |  | 
7 | 396 | 60 | Cc1cc[n+]([O-])c(C)c1-c1ccc(NC(=O)[C@@H](NC(=O)c2conc2C)C2CCCC2)cc1 [Example 37, (S)-3-(4-(2-cyclopentyl-2-(3-methylisoxazole-4-carboxamido)acetamido)phenyl)-2,4-dimethylpyridine 1-oxide] |  | 
8 | 58 | 31 | Cc1nocc1C(=O)N[C@H](C(=O)Nc1ccc(-c2c(Cl)cc[n+]([O-])c2C)cc1)C1CCC(F)(F)CC1 [Example 49, (S)-4-chloro-3-(4-(2-(4,4-difluorocyclohexyl)-2-(3-methylisoxazole-4-carboxamido)acetamido)phenyl)-2-methylpyridine 1-oxide] |  | 

More lines, now with the values behind:

Row | Structure (SMILES) | IC50 [1, 3] [nM] | IC50 [2, 4] [nM] | IC50 ([1]; IL17AA FRET/ IL17Rawt IC50, TR-FRET) [nM] | IC50 ([2]; IL17AA + TNF IC50 IL-6, NHDF cells) [nM]
9 | CCc1nocc1C(=O)N[C@H](C(=O)Nc1ccc(-c2c(C(F)(F)F)cc[n+]([O-])c2C)cc1)[C@H]1CCCC(F)(F)C1 [Example 26, 3-(4-((S)-2-((S)-3,3-difluorocyclohexyl)-2-(3-ethylisoxazole-4-carboxamido)acetamido)phenyl)-2-methyl-4-(trifluoromethyl)pyridine 1-oxide] | 44 | 14 |  | 
10 | Cc1c(-c2ccc(NC(=O)[C@@H](NC(=O)c3ccnn3C)C3CCC(F)(F)CC3)cc2)c(C(F)(F)F)cc[n+]1[O-] [Example 27, (S)-3-(4-(2-(4,4-difluorocyclohexyl)-2-(1-methyl-1H-pyrazole-5-carboxamido)acetamido)phenyl)-2-methyl-4-(trifluoromethyl)pyridine 1-oxide] | 121 | 115 |  | 
11 | CCc1nocc1C(=O)N[C@H](C(=O)Nc1ccc(-c2c(C)cc[n+]([O-])c2C)cc1)[C@@H]1CC=C(F)CC1 [Example 28, 3-(4-((S)-2-(3-ethylisoxazole-4-carboxamido)-2-((S)-4-fluorocyclohex-3-en-1-yl)acetamido)phenyl)-2,4-dimethylpyridine 1-oxide] | 20 | 22 |  | 
12 | Cc1cc[n+]([O-])c(C)c1-c1ccc(NC(=O)[C@@H](NC(=O)c2conc2C)[C@@H]2CC=C(F)CC2)cc1 [Example 29, 3-(4-((S)-2-((S)-4-fluorocyclohex-3-en-1-yl)-2-(3-methylisoxazole-4-carboxamido)acetamido)phenyl)-2,4-dimethylpyridine 1-oxide] | 85 | 47 |  | 
13 | CCn1nccc1C(=O)N[C@H](C(=O)Nc1ccc(-c2c(C)cc[n+]([O-])c2C)cc1)C1CCCC1 [Example 35, (S)-3-(4-(2-cyclopentyl-2-(1-ethyl-1H-pyrazole-5-carboxamido)acetamido)phenyl)-2,4-dimethylpyridine 1-oxide] | 306 | 212 |  | 
14 | Cc1cc[n+]([O-])c(C)c1-c1ccc(NC(=O)[C@@H](NC(=O)c2ccnn2C)C2CCCC2)cc1 [Example 36, (S)-3-(4-(2-cyclopentyl-2-(1-methyl-1H-pyrazole-5-carboxamido)acetamido)phenyl)-2,4-dimethylpyridine 1-oxide] | 1410 | 38 |  | 
15 | Cc1cc[n+]([O-])c(C)c1-c1ccc(NC(=O)[C@H](Cc2ccccc2Cl)NC(=O)c2conc2C)cc1 [Example 38, (S)-3-(4-(3-(2-chlorophenyl)-2-(3-methylisoxazole-4-carboxamido)propanamido)phenyl)-2,4-dimethylpyridine 1-oxide] | 17 | 131 |  | 
16 | Cc1cc[n+]([O-])c(C)c1-c1ccc(NC(=O)[C@@H](NC(=O)c2ccnn2C)C2CCCCC2)cc1 [Example 39, (S)-3-(4-(2-cyclohexyl-2-(1-methyl-1H-pyrazole-5-carboxamido)acetamido)phenyl)-2,4-dimethylpyridine 1-oxide] | 191 | 20 |  | 
17 | Cc1cc[n+]([O-])c(C)c1-c1ccc(NC(=O)[C@@H](NC(=O)c2ccnn2C(C)C)C2CCCCCC2)cc1 [Example 40, (S)-3-(4-(2-cycloheptyl-2-(1-isopropyl-1H-pyrazole-5-carboxamido)acetamido)phenyl)-2,4-dimethylpyridine 1-oxide] | 25 | 2 |  | 
18 | Cc1cc[n+]([O-])c(C)c1-c1ccc(NC(=O)[C@@H](NC(=O)c2ccnn2C)C2CCCCCC2)cc1 [Example 41, (S)-3-(4-(2-cycloheptyl-2-(1-methyl-1H-pyrazole-5-carboxamido)acetamido)phenyl)-2,4-dimethylpyridine 1-oxide] | 24 | 9 |  | 
19 | Cc1cc[n+]([O-])c(C)c1-c1ccc(NC(=O)[C@@H](NC(=O)c2ccnn2C2CC2)C2CCCCCC2)cc1 [Example 42, (S)-3-(4-(2-cycloheptyl-2-(1-cyclopropyl-1H-pyrazole-5-carboxamido)acetamido)phenyl)-2,4-dimethylpyridine 1-oxide] | 26 | 12 |  | 
20 | Cc1cc[n+]([O-])c(C)c1-c1ccc(NC(=O)[C@@H](NC(=O)c2conc2C)C2CCCCCC2)nc1 [Example 44, (S)-6′-(2-cycloheptyl-2-(3-methylisoxazole-4-carboxamido)acetamido)-2,4-dimethyl-[3,3′-bipyridine] 1-oxide] | 34 | 18 |  | 
21 | Cc1c(-c2ccc(NC(=O)[C@@H](NC(=O)c3ccnn3C)C3CCCCC3)cc2)c(Cl)cc[n+]1[O-] [Example 45, (S)-4-chloro-3-(4-(2-cyclohexyl-2-(1-methyl-1H-pyrazole-5-carboxamido)acetamid)phenyl)-2-methylpyridine 1-oxide] |  |  | 26 | 26
22 | Cc1c(-c2ccc(NC(=O)C(NC(=O)c3ccnn3C)C3CCC(C)CC3)cc2)c(Cl)cc[n+]1[O-] [Example 46, 4-chloro-2-methyl-3-(4-((S)-2-(1-methyl-1H-pyrazole-5-carboxamido)-2-((1r,4S)-4-methylcyclohexyl)acetamido)phenyl)pyridine 1-oxide] | 18 | 4 |  | 
23 | Cc1c(-c2ccc(NC(=O)[C@@H](NC(=O)c3ccnn3C)C3CCCCCC3)cc2)c(Cl)cc[n+]1[O-] [Example 47, (S)-4-chloro-3-(4-(2-cycloheptyl-2-(1-methyl-1H-pyrazole-5-carboxamido)acetamido)phenyl)-2-methylpyridine 1-oxide] | 17 | 7 |  | 
24 | Cc1c(-c2ccc(NC(=O)[C@@H](NC(=O)c3ccnn3C(C)C)C3CCCCCC3)cc2)c(Cl)cc[n+]1[O-] [Example 48, (S)-4-chloro-3-(4-(2-cycloheptyl-2-(1-isopropyl-1H-pyrazole-5-carboxamido)acetamido)phenyl)-2-methylpyridine 1-oxide] | 12 | 1 |  | 
